≈ marks a conversion by molar mass, not a printed value.
Assays:
Assay in all cases: MIC and MBC testing, broth microdilution
A. baumannii ATCC 19606 = format: cell-based, Acinetobacter baumannii; settings: Acinetobacter baumannii; for MIC: ATCC19606, 18 h, read-out: MIC; for MBC: ATCC19606, read-out: MBC
Procedure, shortened: (§1)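 Twofold serial dilutions of compound in DMSO were prepared in MH broth and mixed with log-phase bacteria, which had been diluted to 1 × 10^6 CFU/mL before mixing. Plates were incubated 18 h at 37 °C. MIC was the lowest concentration without visible growth, in triplicate.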

P. aeruginosa ATCC 27853 = format: cell-based, Pseudomonas aeruginosa; settings: Pseudomonas aeruginosa; for MIC: ATCC27853, 18 h, read-out: MIC; for MBC: ATCC27853, read-out: MBC
Procedure, shortened: as §1

MRSA-2 = format: cell-based, Staphylococcus aureus; settings: Staphylococcus aureus, MRSA-2; for MIC: 18 h, read-out: MIC; for MBC: read-out: MBC
Procedure, shortened: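 Triplicate broth microdilution: MH broth, serial 2× dilution of compounds dissolved in DMSO, 1 × 10^6 CFU/mL bacteria grown to log phase, 18 h at 37 °C, followed by MBC determination.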

[1] = tested on: clinical S. aureus isolate LMY48; format: cell-based, Staphylococcus aureus; settings: Staphylococcus aureus, LMY48; for MIC: 18 h, read-out: MIC; for MBC: read-out: MBC
Procedure, shortened: (§2)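 Strains (clinical S. aureus LMY45, LMY46, LMY48; MRSA-1) grown to logarithmic phase, diluted to 1 × 10^6 CFU/mL and exposed 18 h at 37 °C to twofold serial compound dilutions in Mueller-Hinton broth, triplicates. Outputs are MIC and bactericidal concentration (MBC).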

MRSA-1 = format: cell-based, Staphylococcus aureus; settings: Staphylococcus aureus, MRSA-1; for MIC: 18 h, read-out: MIC; for MBC: read-out: MBC
Procedure, shortened: as §2

[2] = tested on: clinical S. aureus isolate LMY45; format: cell-based, Staphylococcus aureus; settings: Staphylococcus aureus, LMY45; for MIC: 18 h, read-out: MIC; for MBC: read-out: MBC
Procedure, shortened: as §2

[3] = tested on: clinical S. aureus isolate LMY46; format: cell-based, Staphylococcus aureus; settings: Staphylococcus aureus, LMY46; for MIC: 18 h, read-out: MIC; for MBC: read-out: MBC
Procedure, shortened: as §2

[4] = tested on: clinical S. aureus isolate LMY47; format: cell-based, Staphylococcus aureus; settings: Staphylococcus aureus, LMY47; for MIC: 18 h, read-out: MIC; for MBC: read-out: MBC
Procedure, shortened: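 Broth microdilution in MH broth; two-fold serial dilutions of DMSO-dissolved compound; inoculum 1 × 10^6 CFU/mL from log-phase culture; 37 °C, 18 h; triplicates; MBC also read.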

E. faecium ATCC 35667 = format: cell-based, Enterococcus faecium; settings: Enterococcus faecium, ATCC35667, E. faecium ATCC 35667; for MIC: 18 h, read-out: MIC; for MBC: read-out: MBC
Procedure, shortened: as §1

S. aureus ATCC 29213 = format: cell-based, Staphylococcus aureus; settings: Staphylococcus aureus, ATCC29213, S. aureus ATCC 29213; for MIC: 18 h, read-out: MIC; for MBC: read-out: MBC
Procedure, shortened: as §1

E. coli ATCC 25922 = format: cell-based, Escherichia coli; settings: Escherichia coli; for MIC: ATCC25922, 18 h, read-out: MIC; for MBC: ATCC25922, read-out: MBC
Procedure, shortened: as §1

[5] = tested on: K. pneumoniae ATCC 700603; format: cell-based, Klebsiella pneumoniae; settings: Klebsiella pneumoniae; for MIC: ATCC700603, 18 h, read-out: MIC; for MBC: ATCC700603, read-out: MBC
Procedure, shortened: as §1

Row | MIC (A. baumannii ATCC 19606) [µg/mL] | MIC (P. aeruginosa ATCC 27853) [µg/mL] | MIC (MRSA-2) [µg/mL] | MIC [1] [µg/mL] | MIC (MRSA-1) [µg/mL] | MIC [2] [µg/mL] | MIC [3] [µg/mL] | MIC [4] [µg/mL] | MIC (E. faecium ATCC 35667) [µg/mL] | MIC (S. aureus ATCC 29213) [µg/mL] | MIC (E. coli ATCC 25922) [µg/mL] | MIC [5] [µg/mL] | SMILES | MBC (A. baumannii ATCC 19606) [µg/mL] | MBC (MRSA-2) [µg/mL] | MBC [1] [µg/mL] | MBC (MRSA-1) [µg/mL] | MBC [2] [µg/mL] | MBC [3] [µg/mL] | MBC [4] [µg/mL] | MBC (E. faecium ATCC 35667) [µg/mL] | further results
1 | 8 (≈ 23.2 µM) | 32 (≈ 92.9 µM) | 2 (≈ 5.81 µM) | 2 (≈ 5.81 µM) | 2 (≈ 5.81 µM) | 2 (≈ 5.81 µM) | 4 (≈ 11.6 µM) | 2 (≈ 5.81 µM) | 4 (≈ 11.6 µM) | 2 (≈ 5.81 µM) | 8 (≈ 23.2 µM) | 16 (≈ 46.5 µM) | [H]/N=C(\N)NN=C1CCCc2cc(OCc3ccc(F)cc3F)ccc21 [Compound 1D, (E)-2-(6-((2,4-difluorobenzyl)oxy)-3,4-dihydronaphthalen-1(2H)-ylidene)hydrazine-1-carboximidamide] | 8 (≈ 23.2 µM) | 32 (≈ 92.9 µM) | 4 (≈ 11.6 µM) | 32 (≈ 92.9 µM) | 4 (≈ 11.6 µM) | 32 (≈ 92.9 µM) | 8 (≈ 23.2 µM) | 16 (≈ 46.5 µM) | MBC (P. aeruginosa ATCC 27853): 32 µg/mL (≈ 92.9 µM); MBC (S. aureus ATCC 29213): 8 µg/mL (≈ 23.2 µM); MBC (E. coli ATCC 25922): 8 µg/mL (≈ 23.2 µM); MBC [5]: 16 µg/mL (≈ 46.5 µM)
2 | 8 (≈ 22.6 µM) | 32 (≈ 90.3 µM) | 2 (≈ 5.64 µM) | 4 (≈ 11.3 µM) | 2 (≈ 5.64 µM) | 4 (≈ 11.3 µM) | 2 (≈ 5.64 µM) | 2 (≈ 5.64 µM) | 2 (≈ 5.64 µM) | 4 (≈ 11.3 µM) | 8 (≈ 22.6 µM) | > 32 | CC(C)=CCC/C(C)=C/COc1ccc2c(c1)CCC/C2=N\NC(=N)N [Compound 2J, 2-((E)-6-(((E)-3,7-dimethylocta-2,6-dien-1-yl)oxy)-3,4-dihydronaphthalen-1(2H)-ylidene)hydrazine-1-carboximidamide] | 16 (≈ 45.1 µM) | 16 (≈ 45.1 µM) | 8 (≈ 22.6 µM) | 16 (≈ 45.1 µM) | 16 (≈ 45.1 µM) | > 32 | 16 (≈ 45.1 µM) | 8 (≈ 22.6 µM) | MBC (P. aeruginosa ATCC 27853): 32 µg/mL (≈ 90.3 µM); MBC (S. aureus ATCC 29213): 8 µg/mL (≈ 22.6 µM); MBC (E. coli ATCC 25922): 16 µg/mL (≈ 45.1 µM)
3 | 8 (≈ 24.5 µM) | 32 (≈ 98 µM) | 4 (≈ 12.3 µM) | 4 (≈ 12.3 µM) | 2 (≈ 6.13 µM) | 2 (≈ 6.13 µM) | 2 (≈ 6.13 µM) | 2 (≈ 6.13 µM) | 4 (≈ 12.3 µM) | 4 (≈ 12.3 µM) | 8 (≈ 24.5 µM) | 16 (≈ 49 µM) | [H]/N=C(\N)NN=C1CCCc2cc(OCc3ccc(F)cc3)ccc21 [Compound 1C, (E)-2-(6-((4-fluorobenzyl)oxy)-3,4-dihydronaphthalen-1(2H)-ylidene)hydrazine-1-carboximidamide] | 8 (≈ 24.5 µM) | 8 (≈ 24.5 µM) | 4 (≈ 12.3 µM) | 16 (≈ 49 µM) | 4 (≈ 12.3 µM) | 8 (≈ 24.5 µM) | 8 (≈ 24.5 µM) | 16 (≈ 49 µM) | MBC (P. aeruginosa ATCC 27853): 32 µg/mL (≈ 98 µM); MBC (S. aureus ATCC 29213): 16 µg/mL (≈ 49 µM); MBC (E. coli ATCC 25922): 8 µg/mL (≈ 24.5 µM); MBC [5]: 16 µg/mL (≈ 49 µM)
4 | > 32 | > 32 | 4 (≈ 10.7 µM) | 4 (≈ 10.7 µM) | 4 (≈ 10.7 µM) | 4 (≈ 10.7 µM) | 2 (≈ 5.37 µM) | 2 (≈ 5.37 µM) | 4 (≈ 10.7 µM) | > 32 | > 32 | > 32 | [H]/N=C(\N)NN=C1CCCc2cc(OCCCCCCCCCCC)ccc21 [Compound 2H, (E)-2-(6-(undecyloxy)-3,4-dihydronaphthalen-1(2H)-ylidene)hydrazine-1-carboximidamide] | – | 16 (≈ 42.9 µM) | 4 (≈ 10.7 µM) | 16 (≈ 42.9 µM) | 8 (≈ 21.5 µM) | 16 (≈ 42.9 µM) | 16 (≈ 42.9 µM) | 8 (≈ 21.5 µM) | –
5 | 4 (≈ 10.3 µM) | > 32 | 2 (≈ 5.16 µM) | 2 (≈ 5.16 µM) | 2 (≈ 5.16 µM) | 2 (≈ 5.16 µM) | 2 (≈ 5.16 µM) | 2 (≈ 5.16 µM) | 2 (≈ 5.16 µM) | 2 (≈ 5.16 µM) | 8 (≈ 20.7 µM) | 8 (≈ 20.7 µM) | [H]/N=C(\N)NN=C1CCCc2cc(OCc3cccc(Br)c3)ccc21 [Compound 1R, (E)-2-(6-((3-bromobenzyl)oxy)-3,4-dihydronaphthalen-1(2H)-ylidene)hydrazine-1-carboximidamide] | 4 (≈ 10.3 µM) | 4 (≈ 10.3 µM) | 16 (≈ 41.3 µM) | 16 (≈ 41.3 µM) | 4 (≈ 10.3 µM) | 4 (≈ 10.3 µM) | 8 (≈ 20.7 µM) | 8 (≈ 20.7 µM) | MBC (S. aureus ATCC 29213): 16 µg/mL (≈ 41.3 µM); MBC (E. coli ATCC 25922): 8 µg/mL (≈ 20.7 µM); MBC [5]: 8 µg/mL (≈ 20.7 µM)

Source: paper PMC12250302, “Synthesis, Antimicrobial Activities, and Model of Action of Novel Tetralone Derivatives Containing Aminoguanidinium Moiety” (International Journal of Molecular Sciences, 2025)
